Reference: US11608341B2, “Substituted tetrahydropyrazolo[3,4-d]pyrimidines and tetrahydropyrazolo[4,3-d]pyrimidines as C5A receptor modulators” (Idorsia Pharmaceuticals Ltd., priority 2018, dated 2023)

target: T1, C5AR1 (Homo sapiens, UniProt P21730); experiment: In vitro assay: antagonism of C5a-induced beta-arrestin recruitment (PathHunter) in CHO-K1 C5AR1 beta-arrestin cell line; type: cell-based; conditions: antagonistic activity, 1-10 nM C5a agonist, geometric mean where several measurements, read-out: C5aR IC50
T1 construct: host or cells: CHO-K1
T1 sequence (P21730 1-350): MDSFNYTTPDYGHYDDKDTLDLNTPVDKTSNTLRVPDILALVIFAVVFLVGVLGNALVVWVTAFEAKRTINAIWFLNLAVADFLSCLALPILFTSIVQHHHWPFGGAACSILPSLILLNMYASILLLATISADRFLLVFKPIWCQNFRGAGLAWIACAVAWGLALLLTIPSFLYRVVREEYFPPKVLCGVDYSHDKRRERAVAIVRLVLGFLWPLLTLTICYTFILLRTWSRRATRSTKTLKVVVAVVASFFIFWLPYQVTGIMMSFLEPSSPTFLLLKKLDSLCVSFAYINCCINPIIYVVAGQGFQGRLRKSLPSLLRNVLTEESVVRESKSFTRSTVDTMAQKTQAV
How it was run: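 Antagonist or DMSO added first, then C5a (1-10 nM, added at 6-fold end concentration), 1.5 h at 37 °C. PathHunter detection reagent was added for 45 min at RT before plate reading. IC50s come from antagonist serial dilutions in nmol/l and are geometric means of several measurements.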

| IC50 | SMILES |
| --- | --- |
| 19 nM | Cc1cccc(C)c1N1CCC(N2Cc3cn(C)nc3N(Cc3ccccc3C(F)(F)F)C2=O)CC1 [Example 47] |
| 18 nM | COc1cccc(C)c1N1CCC(N2Cc3cn(C)nc3N(Cc3ccccc3C(F)(F)F)C2=O)CC1 [Example 48] |
| 12 nM | Cn1cc2c(n1)N(Cc1ccccc1C(F)(F)F)C(=O)N(C1CCN(c3c(F)cccc3C#N)CC1)C2 [Example 49] |
| 85 nM | Cc1cccc(F)c1N1CCC(N2Cc3cn(C)nc3N(Cc3nc(N(C)C)ccc3C(F)(F)F)C2=O)CC1 [Example 50] |
| 46 nM | CNc1ccc(C(F)(F)F)c(CN2C(=O)N(C3CCN(c4c(C)cccc4F)CC3)Cc3cn(C)nc32)n1 [Example 51] |
| 72 nM | Cc1ccnc(F)c1N1CCC(N2Cc3cn(C)nc3N(Cc3ccccc3C(F)(F)F)C2=O)CC1 [Example 52] |
| 46 nM | COC(=O)C(Cn1cc2c(n1)N(Cc1ccccc1C(F)(F)F)C(=O)N(C1CCN(c3c(C)cccc3F)CC1)C2)N(C)C (stereo not drawn) [Example 53] |
| 14 nM | COc1nccc(C)c1N1CCC(N2Cc3cn(C)nc3N(Cc3ccccc3C(F)(F)F)C2=O)CC1 [Example 54] |
| 11 nM | Cc1cccc(F)c1N1CC[C@@H](N2Cc3cn(C)nc3N(Cc3ccccc3C(F)(F)F)C2=O)C1 [Example 55] |
| 91 nM | Cc1cccc(F)c1N1CCC(N2Cc3cn(CC(CO)N(C)C)nc3N(Cc3ccccc3C(F)(F)F)C2=O)CC1 (stereo not drawn) [Example 56] |
| 196 nM | CNCCn1cc2c(n1)N(Cc1ccccc1C(F)(F)F)C(=O)N(C1CCN(c3c(C)cccc3F)CC1)C2 [Example 59] |
| 56 nM | Cc1cccc(F)c1N1CCC(N2Cc3cn(CCN(C)C)nc3N(Cc3ccccc3C(F)(F)F)C2=O)CC1 [Example 60] |
| 16 nM | Cc1cccc(F)c1N1CCC(N2Cc3cn(C)nc3N(Cc3c(F)cccc3C(F)(F)F)C2=O)CC1 [Example 61] |
| 105 nM | Cc1cccc(F)c1N1CCC(N2Cc3cn(CCN4CCCC4)nc3N(Cc3ccccc3C(F)(F)F)C2=O)CC1 [Example 62] |
| 91 nM | Cc1cccc(F)c1N1CCC(N2Cc3cn(CCN4CCCCC4)nc3N(Cc3ccccc3C(F)(F)F)C2=O)CC1 [Example 63] |
| 21 nM | Cc1cccc(F)c1N1CCC(N2Cc3cn(CCN4CCOCC4)nc3N(Cc3ccccc3C(F)(F)F)C2=O)CC1 [Example 64] |
| 120 nM | Cc1cccc(F)c1N1CCC(N2Cc3cn(CCN4CCN(C)CC4)nc3N(Cc3ccccc3C(F)(F)F)C2=O)CC1 [Example 65] |
| 152 nM | CC(=O)NCCn1cc2c(n1)N(Cc1ccccc1C(F)(F)F)C(=O)N(C1CCN(c3c(C)cccc3F)CC1)C2 [Example 66] |
| 15 nM | Cc1cccc(F)c1N1CCC(N2Cc3cn(CCNC(=O)OC(C)(C)C)nc3N(Cc3ccccc3C(F)(F)F)C2=O)CC1 [Example 67] |
| 318 nM | Cn1cc2c(n1)N(Cc1ccccc1C(F)(F)F)C(=O)N(C1CCN(c3ncccc3F)CC1)C2 [Example 68] |
| 38 nM | Cc1cccnc1N1CCC(N2Cc3cn(C)nc3N(Cc3ccccc3C(F)(F)F)C2=O)CC1 [Example 69] |

| IC50 | SMILES |
| --- | --- |
| 512 nM | COc1cccnc1N1CCC(N2Cc3cn(C)nc3N(Cc3ccccc3C(F)(F)F)C2=O)CC1 [Example 70] |
| 24 nM | Cc1cccc(F)c1N1CCC(N2Cc3cn(CCNC4CC4)nc3N(Cc3ccccc3C(F)(F)F)C2=O)CC1 [Example 71] |
| 43 nM | Cc1cccc(F)c1N1CCC(N2Cc3cn(CCN(C)C(C)C)nc3N(Cc3ccccc3C(F)(F)F)C2=O)CC1 [Example 72] |
| 17 nM | Cc1cccc(F)c1N1CCC(N2Cc3cn(CCN(C)C4CC4)nc3N(Cc3ccccc3C(F)(F)F)C2=O)CC1 [Example 73] |
| 26 nM | COCCN(C)CCn1cc2c(n1)N(Cc1ccccc1C(F)(F)F)C(=O)N(C1CCN(c3c(C)cccc3F)CC1)C2 [Example 74] |
| 171 nM | Cc1cccc(F)c1N1CCC(N2Cc3cn(C(C)C(N)=O)nc3N(Cc3ccccc3C(F)(F)F)C2=O)CC1 (stereo not drawn) [Example 75] |
| 10 nM | Cc1cccc(F)c1N1CCC(N2Cc3cn(C4COC4)nc3N(Cc3ccccc3C(F)(F)F)C2=O)CC1 [Example 77] |
| 14 nM | Cc1cccc(F)c1N1CCC(N2Cc3cn(C(C)C#N)nc3N(Cc3ccccc3C(F)(F)F)C2=O)CC1 (stereo not drawn) [Example 78] |
| 676 nM | Cc1cccc(F)c1N1CCC(N2Cc3cn(C(C)CN)nc3N(Cc3ccccc3C(F)(F)F)C2=O)CC1 (stereo not drawn) [Example 79] |
| 350 nM | Cc1cccc(F)c1N1CCC(N2Cc3cn(CC(C)N)nc3N(Cc3ccccc3C(F)(F)F)C2=O)CC1 (stereo not drawn) [Example 80] |
| 21 nM | Cc1cccc(F)c1N1CCC(N2Cc3nn(C)nc3N(Cc3ccccc3C(F)(F)F)C2=O)CC1 [Example 81] |
| 119 nM | Cc1cccc(F)c1N1CCC(N2Cc3cn(C4CCCCC4[N+](=O)[O-])nc3N(Cc3ccccc3C(F)(F)F)C2=O)CC1 (stereo not drawn) [Example 82] |
| 75 nM | Cc1cccc(F)c1N1CCC(N2Cc3cn(C(C)(NC(=O)OC(C)(C)C)C(F)(F)F)nc3N(Cc3ccccc3C(F)(F)F)C2=O)CC1 (stereo not drawn) [Example 83] |
| 74 nM | Cc1cccc(F)c1N1CCC(N2Cc3cn(C(C)(C)C(N)=O)nc3N(Cc3ccccc3C(F)(F)F)C2=O)CC1 [Example 84] |
| 34 nM | Cc1ccnc(C#N)c1N1CCC(N2Cc3cn(C)nc3N(Cc3ccccc3C(F)(F)F)C2=O)CC1 [Example 85] |
| 230 nM | Cc1nccc(F)c1N1CCC(N2Cc3cn(C)nc3N(Cc3ccccc3C(F)(F)F)C2=O)CC1 [Example 86] |
| 12 nM | Cc1cccc(F)c1N1CCC(N2Cc3cn(C(C)(C)C#N)nc3N(Cc3ccccc3C(F)(F)F)C2=O)CC1 [Example 87] |
| 156 nM | Cc1cccc(F)c1N1CCC(N2Cc3cn(C(C)(C)CN)nc3N(Cc3ccccc3C(F)(F)F)C2=O)CC1 [Example 88] |
| 54 nM | Cc1nc2c(o1)N(Cc1ccccc1C(F)(F)F)C(=O)N(C1CCN(c3c(C)cccc3F)CC1)C2 [Example 89] |
| 153 nM | Cc1nc2c(s1)N(Cc1ccccc1C(F)(F)F)C(=O)N(C1CCN(c3c(C)cccc3F)CC1)C2 [Example 90] |
| 26 nM | Cc1cccc(F)c1N1CCC(N2Cc3cn(C4CN(C(=O)OC(C)(C)C)C4)nc3N(Cc3ccccc3C(F)(F)F)C2=O)CC1 [Example 91] |

| IC50 | SMILES |
| --- | --- |
| 428 nM | Cc1cccc(F)c1N1CCC(N2Cc3cn(C4CNC4)nc3N(Cc3ccccc3C(F)(F)F)C2=O)CC1 [Example 92] |
| 17 nM | Cc1cccc(F)c1N1CCC(N2Cc3cn(C4CCN(C(=O)OC(C)(C)C)C4)nc3N(Cc3ccccc3C(F)(F)F)C2=O)CC1 (stereo not drawn) [Example 93] |
| 727 nM | Cc1cccc(F)c1N1CCC(N2Cc3cn(C4CCNC4)nc3N(Cc3ccccc3C(F)(F)F)C2=O)CC1 (stereo not drawn) [Example 94] |
| 125 nM | COc1ccnc(OC)c1N1CCC(N2Cc3cn(C)nc3N(Cc3ccccc3C(F)(F)F)C2=O)CC1 [Example 95] |
| 492 nM | COc1ncnc(C)c1N1CCC(N2Cc3cn(C)nc3N(Cc3ccccc3C(F)(F)F)C2=O)CC1 [Example 96] |
| 30 nM | Cc1cccc(F)c1N1CCC(N2Cc3cn(CC4CCCN4C(=O)OC(C)(C)C)nc3N(Cc3ccccc3C(F)(F)F)C2=O)CC1 (stereo not drawn) [Example 97] |
| 339 nM | COc1ncnc(OC)c1N1CCC(N2Cc3cn(C)nc3N(Cc3ccccc3C(F)(F)F)C2=O)CC1 [Example 100] |
| 22 nM | Cc1cccc(F)c1N1CCC(N2Cc3cn(CC(C)(C)NS(=O)(=O)c4ccc(Cl)cc4)nc3N(Cc3ccccc3C(F)(F)F)C2=O)CC1 [Example 101] |
| 351 nM | CCN1CC(n2cc3c(n2)N(Cc2ccccc2C(F)(F)F)C(=O)N(C2CCN(c4c(C)cccc4F)CC2)C3)C1 [Example 103] |
| 146 nM | Cc1cccc(F)c1N1CCC(N2Cc3cn(C4CN(CC(C)C)C4)nc3N(Cc3ccccc3C(F)(F)F)C2=O)CC1 [Example 104] |
| 24 nM | Cc1cccc(F)c1N1CCC(N2Cc3cn(C4CN(CC(F)F)C4)nc3N(Cc3ccccc3C(F)(F)F)C2=O)CC1 [Example 106] |
| 52 nM | Cc1cccc(F)c1N1CCC(N2Cc3cn(C4CN(CCF)C4)nc3N(Cc3ccccc3C(F)(F)F)C2=O)CC1 [Example 107] |
| 21 nM | Cc1cccc(F)c1N1CCC(N2Cc3cn(C[C@H]4CC(F)(F)CN4C(=O)OC(C)(C)C)nc3N(Cc3ccccc3C(F)(F)F)C2=O)CC1 [Example 108] |
| 27 nM | Cc1cccc(F)c1N1CCC(N2Cc3cn(C[C@@H]4CC(F)(F)CN4C(=O)OC(C)(C)C)nc3N(Cc3ccccc3C(F)(F)F)C2=O)CC1 [Example 109] |
| 28 nM | Cc1cccc(F)c1N1CCC(N2Cc3cn(CC(C)(C)NS(=O)(=O)c4ccccc4[N+](=O)[O-])nc3N(Cc3ccccc3C(F)(F)F)C2=O)CC1 [Example 110] |
| 29 nM | Cc1cccc(F)c1N1CCC(N2Cc3cn(C[C@H]4CC(F)(F)CN4)nc3N(Cc3ccccc3C(F)(F)F)C2=O)CC1 [Example 111] |
| 18 nM | Cc1cccc(F)c1N1CCC(N2Cc3cn(C[C@@H]4CC(F)(F)CN4)nc3N(Cc3ccccc3C(F)(F)F)C2=O)CC1 [Example 112] |
| 110 nM | CC(=O)N1CCC(n2cc3c(n2)N(Cc2ccccc2C(F)(F)F)C(=O)N(C2CCN(c4c(C)cccc4F)CC2)C3)C1 (stereo not drawn) [Example 113] |
| 107 nM | CC(=O)N1CCC1Cn1cc2c(n1)N(Cc1ccccc1C(F)(F)F)C(=O)N(C1CCN(c3c(C)cccc3F)CC1)C2 (stereo not drawn) [Example 114] |
| 137 nM | CC(=O)N1CCCC1Cn1cc2c(n1)N(Cc1ccccc1C(F)(F)F)C(=O)N(C1CCN(c3c(C)cccc3F)CC1)C2 (stereo not drawn) [Example 115] |
| 844 nM | CC(=O)N1CC(n2cc3c(n2)N(Cc2ccccc2C(F)(F)F)C(=O)N(C2CCN(c4c(C)cccc4F)CC2)C3)C1 [Example 116] |
